# Data: ChEMBL document CHEMBL1201862, “PubChem BioAssay data set” (2004)
# The source made the active and inactive calls.
# Assays:
# [1] = microbe, parasite or virus in culture; type: functional; conditions: Mycobacterium tuberculosis
# Protein skinhead-1 = molecular target: T1, Protein skinhead-1 (Caenorhabditis elegans, UniProt P34707); type: functional
# T1 sequence (P34707 whole entry): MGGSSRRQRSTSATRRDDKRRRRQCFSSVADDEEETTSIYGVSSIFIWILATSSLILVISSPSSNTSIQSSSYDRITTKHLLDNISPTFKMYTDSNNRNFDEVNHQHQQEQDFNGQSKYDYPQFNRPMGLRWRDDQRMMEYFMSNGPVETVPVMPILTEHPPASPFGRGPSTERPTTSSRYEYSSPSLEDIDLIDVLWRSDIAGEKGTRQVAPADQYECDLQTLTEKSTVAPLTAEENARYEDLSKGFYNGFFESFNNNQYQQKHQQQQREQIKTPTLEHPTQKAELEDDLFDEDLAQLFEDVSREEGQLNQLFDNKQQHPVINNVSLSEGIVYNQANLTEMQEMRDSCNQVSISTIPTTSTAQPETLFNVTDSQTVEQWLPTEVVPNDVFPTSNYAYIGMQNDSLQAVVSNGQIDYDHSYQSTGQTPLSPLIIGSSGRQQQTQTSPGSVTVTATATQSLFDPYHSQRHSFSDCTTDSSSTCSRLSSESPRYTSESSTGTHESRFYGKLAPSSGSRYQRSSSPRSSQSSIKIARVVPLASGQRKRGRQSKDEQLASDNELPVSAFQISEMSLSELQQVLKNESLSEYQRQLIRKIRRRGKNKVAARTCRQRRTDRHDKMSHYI
# [2] = molecular target: FAD-linked sulfhydryl oxidase ALR (Homo sapiens, UniProt P55789); assay: inhibitors of human ALR sulfhydryl oxidase, dose response, biochemical, H2O2 detection, luminescence, cherry-pick (AID 493248)
# [3] = NIH-3T3 fibroblast cytotoxicity, dose response, cytotoxicity control, cell-based, fluorescence, Alamar Blue, secondary assay (AID 2327); type: functional;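 note: NIH-3T3 mouse fibroblasts cultured with fluconazole at 8 µg/mL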
# [4] = C. albicans growth with fluconazole, confirmation, fluorescence, retest (AID 2467); type: functional, cell-based
# [5] = HEp-2 cell cytotoxicity, dose response, cytotoxicity control for RSV inhibitor project, HTS (AID 2410); type: functional; conditions: human respiratory syncytial virus
# [6] = Luminescence Cell-Based Dose Retest to Confirm Inhibitors of Cancer Stem Cells. [Related pubchem assays (depositor defined):AID2717, AID2721]; type: functional; conditions: Homo sapiens
# [7] = molecular target: T2, Heat shock factor protein 1 (Mus musculus, UniProt P38532); assay: inhibition of MG132-induced HSE-luciferase signal, confirmation, cell-based, NIH3T3, luminescence, dose retest (AID 2382); type: functional;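 note: NIH3T3 fibroblasts with HSF1-driven luciferase reporter stressed by proteasome inhibitor MG132; luminescence from HSF1-driven luciferase expression after 8 hours of MG132 stress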
# T2 sequence (P38532 whole entry): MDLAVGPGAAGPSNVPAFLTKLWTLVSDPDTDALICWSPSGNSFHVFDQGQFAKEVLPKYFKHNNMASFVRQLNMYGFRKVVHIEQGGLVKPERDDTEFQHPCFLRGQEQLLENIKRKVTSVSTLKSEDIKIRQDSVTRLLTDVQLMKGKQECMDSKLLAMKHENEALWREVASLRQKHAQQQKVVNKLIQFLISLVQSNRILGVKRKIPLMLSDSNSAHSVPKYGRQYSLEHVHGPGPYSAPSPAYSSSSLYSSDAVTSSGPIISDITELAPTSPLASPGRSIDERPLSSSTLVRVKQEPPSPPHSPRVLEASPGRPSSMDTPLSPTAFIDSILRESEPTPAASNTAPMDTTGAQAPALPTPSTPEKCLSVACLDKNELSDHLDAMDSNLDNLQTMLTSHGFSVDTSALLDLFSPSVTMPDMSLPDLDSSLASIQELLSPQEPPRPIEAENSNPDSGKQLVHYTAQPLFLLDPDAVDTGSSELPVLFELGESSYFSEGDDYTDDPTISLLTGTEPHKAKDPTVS
# H4 = assay: Luminescence Cell-Based Dose Response HTS to Identify Activators of 5'UTR Stem-Loop Driven Prion Protein mRNA Translation in H4 Neuroglioblastoma Cells. [Related pubchem assays: 1829 (Project Summary), 1814 (Primary HTS)]; type: functional; conditions: Homo sapiens
# Cytochrome P450 2C19 = Cytochrome P450 2C19 (Homo sapiens, UniProt P33261); assay: Cytochrome panel assay with activity outcomes. Panel member name: p450-cyp2c19 Compounds with AC50 equal or less than 10 uM are considered active; type: functional; conditions: read-out: AC50
# Cytochrome P450 2C9 = Cytochrome P450 2C9 (Homo sapiens, UniProt P11712)
# Chain of Cytochrome P450 2C9 (P11712 whole entry): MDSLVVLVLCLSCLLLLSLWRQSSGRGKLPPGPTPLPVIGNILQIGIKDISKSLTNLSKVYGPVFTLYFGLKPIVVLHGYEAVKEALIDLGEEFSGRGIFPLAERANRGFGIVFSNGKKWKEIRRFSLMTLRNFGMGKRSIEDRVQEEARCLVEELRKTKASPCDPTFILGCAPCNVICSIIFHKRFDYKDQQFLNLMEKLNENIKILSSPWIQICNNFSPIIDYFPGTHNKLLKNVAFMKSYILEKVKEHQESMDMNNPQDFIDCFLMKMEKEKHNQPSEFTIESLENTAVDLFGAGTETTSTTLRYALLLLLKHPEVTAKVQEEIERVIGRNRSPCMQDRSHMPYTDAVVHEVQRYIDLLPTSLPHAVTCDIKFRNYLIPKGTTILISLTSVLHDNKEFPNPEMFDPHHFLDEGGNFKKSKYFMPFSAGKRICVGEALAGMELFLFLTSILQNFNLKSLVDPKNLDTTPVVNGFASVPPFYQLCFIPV
# Chain of FAD-linked sulfhydryl oxidase ALR (P55789 whole entry): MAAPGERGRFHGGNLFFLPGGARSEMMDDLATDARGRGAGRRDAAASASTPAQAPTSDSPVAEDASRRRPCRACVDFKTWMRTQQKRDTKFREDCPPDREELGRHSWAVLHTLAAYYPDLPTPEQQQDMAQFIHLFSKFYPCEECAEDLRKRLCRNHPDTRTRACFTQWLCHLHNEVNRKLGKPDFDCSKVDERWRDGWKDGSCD
# Chain of Cytochrome P450 2C19 (P33261 whole entry): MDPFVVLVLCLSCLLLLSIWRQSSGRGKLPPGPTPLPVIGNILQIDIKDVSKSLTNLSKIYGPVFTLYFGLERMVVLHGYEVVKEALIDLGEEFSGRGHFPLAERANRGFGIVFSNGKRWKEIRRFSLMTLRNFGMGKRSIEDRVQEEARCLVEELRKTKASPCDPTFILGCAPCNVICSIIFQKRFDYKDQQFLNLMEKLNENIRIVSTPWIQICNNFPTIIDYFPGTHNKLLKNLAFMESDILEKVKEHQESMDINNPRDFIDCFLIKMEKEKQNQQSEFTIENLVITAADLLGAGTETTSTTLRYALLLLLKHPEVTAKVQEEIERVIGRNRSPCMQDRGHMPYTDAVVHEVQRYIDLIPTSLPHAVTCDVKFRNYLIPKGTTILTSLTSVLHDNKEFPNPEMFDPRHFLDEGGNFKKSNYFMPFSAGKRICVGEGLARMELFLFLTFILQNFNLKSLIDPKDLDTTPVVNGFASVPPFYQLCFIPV
compound,measurement,setting,value
C=CCNC(=O)c1onc(CCl)c1C(=O)OC,CC50,[1],> 40 µM (active)
CC1Cc2ccccc2N1C(=O)C1CCN(S(=O)(=O)Cc2ccccc2)CC1 (stereo not drawn),IC50,Protein skinhead-1,> 100 µM (inactive)
CNc1nc(N)c(C(=O)C23CC4CC(CC(C4)C2)C3)s1,AC50,[2],0.437 µM (active)
Cc1nc(C(F)(F)F)c(C(=O)O)cc1-c1nc(-c2ccccc2)cs1,AC50,[2],11.4 µM (active)
Nc1cc(N)nc(SCc2cccc(F)c2)n1,EC50,[3],> 150 µM (inactive)
same,EC50,[4],> 38 µM (not active)
Cc1nn2c(-c3cccnc3)ccnc2c1-c1ccccc1,CC50,[5],41.2 µM (active)
O=C(O)c1ccc(-c2nc(-c3ccc(Cl)cc3)cs2)cc1,EC50,[3],112 µM (active)
same,EC50,[4],4.58 µM (active)
Cn1c(-c2ccc(F)cc2)cnc1NCc1cc2c(cc1[N+](=O)[O-])OCO2,AC50,[2],7.43 µM (active)
Sc1nnc(C2CCCCC2)n1/N=C/C(Cl)=C\c1ccccc1,AC50,[6],5.5 µM (active)
same,CC50,[5],15.2 µM (active)
O=C(NCC1CCCN(C2Cc3ccccc3C2)C1)c1cccs1 (stereo not drawn),EC50,[7],> 195 µM (not active)
CCN(CC)C(=O)[C@H]1CC(CC(=O)NCC23C[C@H]4C[C@@H](C2)C[C@@H](C3)C4)C(=O)N2CCc3c([nH]c4ccccc34)[C@]12C (stereo partly drawn),CC50,[1],30.8 µM (active)
CCCc1nc(NCCO)c(C#N)c2c1CCCC2,CC50,[5],15.7 µM (active)
CCOC1OC(O)=C(Cl)/C1=N\c1cc(C)ccc1C (stereo not drawn),CC50,[5],29.2 µM (active)
Fc1ccc2nc(Nc3nc4c(s3)CCCC4)sc2c1,EC50,H4,0.986 µM (active)
O=C1c2ccccc2C(=O)N1CCCCN(C(=O)c1ccc(Cl)s1)c1ccc(Cl)cc1,CC50,[5],24 µM (active)
O=C(/C=C/c1ccc2c(c1)OCCCO2)c1ccc2ccccc2c1O,AC50,[6],5.21 µM (active)
same,CC50,[5],30.7 µM (active)
CCn1cc(-c2ccccc2)c(C(=O)O)c1-c1ccc(OC)cc1,AC50,[2],5.6 µM (active)
Cn1c(/C=N/Nc2nc3ccccc3[nH]2)nc2ccccc21,CC50,[1],> 40 µM (active)
same,EC50,[3],35.5 µM (active)
same,EC50,[4],> 38 µM (not active)
Nc1ccc(N2CCN(C(=O)c3ccco3)CC2)cc1,AC50,[2],0.719 µM (active)
same,AC50,Cytochrome P450 2C19,8.91 µM (inconclusive)
same,AC50,Cytochrome P450 2C9,10 µM (inconclusive)
O=C(Nc1cccc(F)c1)c1cc(-c2ccco2)nc2ccccc12,EC50,[7],> 195 µM (not active)
